Earlier results as cited in patent US20240299291A1, “OPHTHALMIC PREPARATION ADMINISTERED BY EYE DROPS AND USED FOR PREVENTING AND TREATING DRY MACULAR DEGENERATION AND RETINAL LIGHT DAMAGE” (CHENGDU RUIMU BIOPHARMACEUTICALS CO., LTD., priority 2021, published 2024).

Key:
[1] = system: age-related macular degeneration (AMD); conditions: oral metformin
[2] = system: AMD; open-angle glaucoma
[3] = system: retinal light damage; conditions: injection into the vitreous cavity of mice, up to 500 mg/kg/day, 7 days, before light damage
[4] = system: AMPK (adenosine mono-phosphate activated protein kinase); conditions: mice

AMPK activation in the retina of eyes [4]: locally activates AMPK
SMILES: CN(C)C(=N)N=C(N)N [metformin]
Risk of AMD in patients with type 2 diabetes versus patients who did not take metformin [1]: significantly lower | Reduction of the incidence of open-angle glaucoma versus patients who did not take metformin ([2]; high-dose group (>1110 g metformin for 2 years)): 25% | Effect on the occurrence or development of AMD ([2]; oral metformin): may have therapeutic effect on the occurrence or development of AMD | Prevention of light damage [3]: almost completely prevent the light damage
